pIC50: −log10 of the molar value. Some results are limits rather than exact numbers.

We go through 22 molecules from US8399497B2, “Thiazole derivatives and use thereof” (Merck Serono SA, priority 2005, dated 2013).

For assay [1], the target named is Human recombinant GST-PI3Kγ (Homo sapiens, UniProt P48736). The experiment in a line: High throughput PI3K lipid kinase assay (SPA, neomycin-coated beads). In kind it is biochemical. An excerpt: a) High Throughput PI3K Lipid Kinase Assay (Binding Assay):
The efficacy of compounds of the invention in inhibiting the PI3K induced-lipid phosphorylation may be tested in the following binding assay.
The assay combines the scintillation proximity assay technology (SPA, Amersham) with the capacity of neomycin (a polycationic antibiotic) to bind phospholipids with high affinity and specificity. The Scintillation Proximity Assay is based on the properties of weakly emitting isotopes (such as ^3H, ^125I, ^33P). Coating SPA beads with neomycin allows the detection of phosphorylated lipid substrates after incubation with recombinant PI3K and radioactive ATP in the same well, by capturing the radioactive phospholipids to the SPA beads through their specific binding to neomycin.
To a 384 wells MTP containing 5 μl of the test compound of Formula (I) (solubilized in 6% DMSO; to yield a concentration of 100, 30, 10, 3, 1, 0.3, 0.1, 0.03, 0.01, 01 μM of the test compound), the following assay components are added. 1) 5 μl (58 ng) of Human recombinant GST-PI3Kγ (in Hepes 40 mM, pH 7.4, DTT 1 mM and ethylenglycol 5%) 2) 10 μl of lipid micelles and 3) 10 μl of Kinase buffer ([^33P]γ-ATP 45 μM/60 nCi, MgCl2 30 mM, DTT 1 mM, β-Glycerophosphate 1 mM, Na3VO4 100 μM, Na Cholate 0.3%, in Hepes 40 mM, pH 7.4). After incubation at room temperature for 180 minutes, with gentle agitation, the reaction is stopped by addition of 60 μl of a solution containing 100 μg of neomycin-coated PVT SPA beads in PBS containing ATP 10 mM and EDTA 5 mM. The assay is further incubated at room temperature for 60 minutes with gentle agitation to allow binding of phospholipids to neomycin-SPA beads. After precipitation of the neomycin-coated PVT SPA beads for 5 minutes at 1500×g, radioactive PtdIns(3)P is quantified by scintillation counting in a Wallac MicroBeta™ plate counter.
The values indicated in Table II below refer to the IC50 (μM) with respect to PI3Kγ, i.e. the amount necessary to achieve 50% inhibition of said target. Said values show a considerable inhibitory potency of thiazole compounds with regard to PI3Kγ.

A further assay relates to Neutrophil recruitment. Kind of assay: Thioglycollate-induced peritoneal cavity cell recruitment model, neutrophils. The format is in vivo, C3H mice. The following applies: 10 mg/kg orally, lavage 4 h after thioglycollate. The method, then: Thioglycollate-Induced Pertioneal Cavity Cell Recruitment Model
The in vivo efficacy of compounds of the invention in inhibiting the migration of leukocytes upon intraperitoneal challenge of thioglycollate may be tested with the following assay.
8-10 weeks old female C3H mice are fasted during 18 hours. 15 minutes prior the intraperitoneal injection of thioglycollate (1.5%, 40 ml/kg), the mice are treated orally with Thiazoles of Formula (I). Control mice receive CMC/Tween as vehicle (10 ml/kg). The mice are then sacrificed by CO2 inhalation and the peritoneal cavity is washed two times with 5 ml of ice-cold PBS/1 mM EDTA. The lavages are done 4 hours or 48 hours after thioglycollate challenge to evaluate neutrophils or macrophages recruitment, respectively. The white blood cells (neutrophils, lymphocytes or macrophages) are counted using a Beckman Coulter® A ^cT 5diff™. Dexamethasone is used as reference drug.

For assay [2], the system named is PI3K induced Akt/PKB phosphorylation in Raw 264-7 macrophages. The experiment in a line: Cell based ELISA of Akt/PKB phosphorylation in macrophages after Complement 5a stimulation. The following applies: Mus musculus, RAW264.7, 5 min, 50 nM Complement 5a for 5 minutes, read-out: Cell Assay (P-Akt, Elisa) IC50. The method, then: b) Cell Based ELISA to Monitor PI3K Inhibition:
The efficacy of compounds of the invention in inhibiting the PI3K induced Akt/PKB phosphorylation may be tested in the following cell based assay.
Measurement of Akt/PKB phosphorylation in macrophages after stimulation with Complement 5a: Raw 264: Raw 264-7 macrophages (cultured in DMEM-F12 medium containing 10% Fetal Calf serum and antibiotics) are plated at 20,000 cells/well in a 96 MTP 24 h before cell stimulation. Prior to the stimulation with 50 nM of Complement 5a during 5 minutes, Cells are serum starved for 2 h, and pretreated with inhibitors for 20 minutes. After stimulation cells are fixed in 4% formaldehyde for 20 minutes and washed 3 times in PBS containing 1% Triton X-100 (PBS/Triton). Endogenous peroxidase is blocked by a 20 minutes incubation in 0.6% H2O2 and 0.1% Sodium Azide in PBS/Triton and washed 3 times in PBS/Triton. Cells are then blocked by 60 minutes incubation with 10% fetal calf serum in PBS/Triton. Next, phosphorylated Akt/PKB is detected by an overnight incubation at 4° C. with primary antibody (anti phospho Serine 473 Akt IHC, Cell Signaling) diluted 800-fold in PBS/Triton, containing 5% bovine serum albumin (BSA). After 3 washes in PBS/Triton, cells are incubated for 60 minutes with a peroxidase conjugated goat-anti-rabbit secondary antibody (1/400 dilution in PBS/Triton, containing 5% BSA), washed 3 times in PBS/Triton, and 2 times in PBS and further incubated in 100 μl of luminescent substrate reagent solution (Pierce) for 2 minutes, followed by the reading (1 s/well).
The values indicated in Table III below reflect the percentage of inhibition of AKT phoshorylation as compared to basal level. Said values show a clear effect of the thiazole compounds on the activation of AKT phosphorylation in macrophages.
In general terms: ELISA stands for enzyme-linked immunosorbent assay.

Sequence of Human recombinant GST-PI3Kγ (P48736 whole entry): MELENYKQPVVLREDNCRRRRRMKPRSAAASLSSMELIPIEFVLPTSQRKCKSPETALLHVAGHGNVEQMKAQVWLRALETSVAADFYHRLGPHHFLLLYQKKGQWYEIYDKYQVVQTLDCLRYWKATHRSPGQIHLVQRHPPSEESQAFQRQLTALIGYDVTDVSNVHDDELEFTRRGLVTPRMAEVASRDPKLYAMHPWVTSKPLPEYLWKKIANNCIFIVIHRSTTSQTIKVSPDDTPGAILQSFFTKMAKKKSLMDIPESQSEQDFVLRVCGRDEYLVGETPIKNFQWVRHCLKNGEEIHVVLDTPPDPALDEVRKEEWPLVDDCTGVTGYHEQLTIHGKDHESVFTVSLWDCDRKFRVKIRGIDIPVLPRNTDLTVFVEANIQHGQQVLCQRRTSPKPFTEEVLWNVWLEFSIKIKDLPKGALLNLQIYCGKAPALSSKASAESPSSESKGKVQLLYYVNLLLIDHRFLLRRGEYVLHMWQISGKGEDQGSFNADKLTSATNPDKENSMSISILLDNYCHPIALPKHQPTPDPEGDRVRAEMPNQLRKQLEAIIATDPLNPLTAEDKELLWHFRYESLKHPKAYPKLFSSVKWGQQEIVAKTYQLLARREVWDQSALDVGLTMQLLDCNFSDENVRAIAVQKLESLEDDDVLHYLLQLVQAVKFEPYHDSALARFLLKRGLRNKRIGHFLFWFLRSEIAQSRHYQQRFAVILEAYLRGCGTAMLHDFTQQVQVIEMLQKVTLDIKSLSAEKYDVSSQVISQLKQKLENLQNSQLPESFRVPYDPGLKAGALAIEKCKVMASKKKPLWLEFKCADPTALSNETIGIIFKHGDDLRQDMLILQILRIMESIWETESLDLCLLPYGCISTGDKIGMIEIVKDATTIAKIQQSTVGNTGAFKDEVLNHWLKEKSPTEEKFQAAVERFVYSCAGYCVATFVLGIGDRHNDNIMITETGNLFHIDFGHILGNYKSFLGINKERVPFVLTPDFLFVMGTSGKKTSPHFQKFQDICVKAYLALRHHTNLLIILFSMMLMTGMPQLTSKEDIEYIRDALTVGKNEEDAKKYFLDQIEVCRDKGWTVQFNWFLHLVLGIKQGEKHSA

Broadly, the pIC50 is the negative decadic logarithm of the IC50, by convention in mol/L. Regarding `CC(=O)Nc1nc(C)c(-c2ccc(S(=O)(=O)N(C)C)s2)s1` [Example 18, N-(5-{5-[(dimethylamino)sulfonyl]-2-thienyl}-4-methyl-1,3-thiazol-2-yl)acetamide], in assay [1], the pIC50 is 6.98.
Same read-out and setting: the figure for `CC(=O)Nc1nc(C)c(-c2ccc(S(=O)(=O)NC3CCN(C)CC3)s2)s1` [Example 4, N-[4-methyl-5-(5-{[(1-methylpiperidin-4-yl)amino]sulfonyl}-2-thienyl)-1,3-thiazol-2-yl]acetamide] is 6.53; for `CC(=O)Nc1nc(C)c(-c2ccc(S(=O)(=O)N(C)CCN(C)C)s2)s1` [Example 5, N-[5-(5-{[[2-(dimethylamino)ethyl](methyl)amino]sulfonyl}-2-thienyl)-4-methyl-1,3-thiazol-2-yl]acetamide] it is 7.70.
The same measure, in the same setting: the value for `CNC(=O)CNS(=O)(=O)c1ccc(-c2sc(NC(C)=O)nc2C)s1` [Example 12, N~2~-({5-[2-(acetylamino)-4-methyl-1,3-thiazol-5-yl]-2-thienyl}sulfonyl)-N~1~-methylglycinamide] was 6.28; that for `CC(=O)Nc1nc(C)c(-c2ccc(S(=O)(=O)N3CCN(C)CC3)s2)s1` [Example 8, N-(4-methyl-5-{5-[(4-methylpiperazin-1-yl)sulfonyl]-2-thienyl}-1,3-thiazol-2-yl)acetamide] was 6.77.
With `CC(=O)Nc1nc(C)c(-c2ccc(S(=O)(=O)NCCN3CCOCC3)s2)s1` [Example 9, N-[4-methyl-5-(5-{[(2-morpholin-4-ylethyl)amino]sulfonyl}-2-thienyl)-1,3-thiazol-2-yl]acetamide], the pIC50 in assay [1] was 6.80; in assay [2] it was 6.07. In the assay with Neutrophil recruitment, the “% inhibition of Neutrophil recruitment at 10 mg/kg after 4 h” value is given as 48%.
The matching figures for `CC(=O)Nc1nc(C)c(-c2csc(S(=O)(=O)N3CCOCC3)c2)s1` [Example 46, N-{4-methyl-5-[5-(morpholin-4-ylsulfonyl)-3-thienyl]-1,3-thiazol-2-yl}acetamide]: 7.57, < 4.52 and 36%.
Regarding `C#CCNS(=O)(=O)c1ccc(-c2sc(NC(C)=O)nc2C)s1` [Example 1, N-(4-methyl-5-{5-[(prop-2-yn-1-ylamino)sulfonyl]-2-thienyl}-1,3-thiazol-2-yl)acetamide], the negative-log IC50 (pIC50) was 6.92 in assay [1] and 6.18 in assay [2].
For `CC(=O)Nc1nc(C)c(-c2csc(S(=O)(=O)N3CCN(C)CC3)c2)s1` [Example 29, N-(4-methyl-5-{5-[(4-methylpiperazin-1-yl)sulfonyl]-3-thienyl}-1,3-thiazol-2-yl)acetamide], the values for the negative logarithm of the IC50 (pIC50) in assay [1] and in assay [2] were 7.55 and 6.34, respectively. The “% inhibition of Neutrophil recruitment at 10 mg/kg after 4 h” value in the assay with Neutrophil recruitment turned out to be 28%.
For `CC(=O)Nc1nc(C)c(-c2ccc(S(=O)(=O)NCC3COC(C)(C)O3)s2)s1` (stereo not drawn) [Example 14, N-{5-[5-({[(2,2-dimethyl-1,3-dioxolan-4-yl)methyl]amino}sulfonyl)-2-thienyl]-4-methyl-1,3-thiazol-2-yl}acetamide], the pIC50 in assay [1] is 6.70.
`CC(=O)Nc1nc(C)c(-c2ccc(S(=O)(=O)N3CCNCC3)s2)s1` [Example 11, N-{4-methyl-5-[5-(piperazin-1-ylsulfonyl)-2-thienyl]-1,3-thiazol-2-yl}acetamide]: the negative-log IC50 (pIC50) in assay [1] was 6.70.
As for `CC(=O)Nc1nc(C)c(-c2csc(S(=O)(=O)NC3CCN(C)CC3)c2)s1` [Example 28, N-[4-methyl-5-(5-{[(1-methylpiperidin-4-yl)amino]sulfonyl}-3-thienyl)-1,3-thiazol-2-yl]acetamide], the pIC50 in assay [1] is 7.11.
On the same count and under the same terms, the value for `COC(=O)[C@H](CO)NS(=O)(=O)c1ccc(-c2sc(NC(C)=O)nc2C)s1` [Example 15, methyl N-({5-[2-(acetylamino)-4-methyl-1,3-thiazol-5-yl]-2-thienyl}sulfonyl)serinate] was 7.15; that for `CC(=O)Nc1nc(C)c(-c2csc(S(=O)(=O)N3CCNCC3)c2)s1` [Example 26, N-{4-methyl-5-[5-(piperazin-1-ylsulfonyl)-3-thienyl]-1,3-thiazol-2-yl}acetamide] was 7.17; that for `CC(=O)Nc1nc(C)c(-c2csc(S(=O)(=O)NCCN3CCOCC3)c2)s1` [Example 24, N-[4-methyl-5-(5-{[(2-morpholin-4-ylethyl)amino]sulfonyl}-3-thienyl)-1,3-thiazol-2-yl]acetamide] was 7.80.
On to `CC(=O)Nc1nc(C)c(-c2ccc(S(=O)(=O)N[C@@H](CO)C(=O)O)s2)s1` [Example 16, N-({5-[2-(acetylamino)-4-methyl-1,3-thiazol-5-yl]-2-thienyl}sulfonyl)serine], for which the negative-log IC50 (pIC50) in assay [1] is 6.43.
For `CC(=O)Nc1nc(C)c(-c2csc(S(=O)(=O)NCCN(C)C)c2)s1` [Example 23, N-{5-[5-({[2-(dimethylamino)ethyl]amino}sulfonyl)-3-thienyl]-4-methyl-1,3-thiazol-2-yl}acetamide], the pIC50 was 7.55 in assay [1] and 6.32 in assay [2].
For the molecule `CC(=O)NCCNS(=O)(=O)c1ccc(-c2sc(NC(C)=O)nc2C)s1` [Example 13, N-{5-[5-({[2-(acetylamino)ethyl]amino}sulfonyl)-2-thienyl]-4-methyl-1,3-thiazol-2-yl}acetamide], the negative-log IC50 (pIC50) in assay [1] is 6.96.
Still for that read-out and setting: the figure for `COC(=O)CCCC(=O)Nc1nc(C)c(-c2ccc(S(=O)(=O)NCCN3CCOCC3)s2)s1` [Example 7, methyl 5-{[4-methyl-5-(5-{[(2-morpholin-4-ylethyl)amino]sulfonyl}-2-thienyl)-1,3-thiazol-2-yl]amino}-5-oxopentanoate] is 5.92.
Take `CC(=O)Nc1nc(C)c(-c2ccc(S(=O)(=O)NCC(O)CO)s2)s1` (stereo not drawn) [Example 17, N-[5-(5-{[(2,3-dihydroxypropyl)amino]sulfonyl}-2-thienyl)-4-methyl-1,3-thiazol-2-yl]acetamide]: the pIC50 in assay [1] was 7.15.
Regarding `CC(=O)Nc1nc(C)c(-c2ccc(S(=O)(=O)N3CCN(C(C)=O)CC3)s2)s1` [Example 2, N-(5-{5-[(4-acetylpiperazin-1-yl)sulfonyl]-2-thienyl}-4-methyl-1,3-thiazol-2-yl)acetamide], in assay [1], the negative logarithm of the IC50 (pIC50) is 6.40.
For the molecule `CC(=O)Nc1nc(C)c(-c2csc(S(=O)(=O)N3CCCC(O)C3)c2)s1` (stereo not drawn) [Example 48, N-(5-{5-[(3-hydroxypiperidin-1-yl)sulfonyl]-3-thienyl}-4-methyl-1,3-thiazol-2-yl)acetamide], in assay [2], the pIC50 is 6.82.
